Common to all, as to type: toxicity, cell-based
Data set [1] is described as follows: Lethal dose against HeLa human cervix cancer cell line. Particulars: HeLa cells, read-out: LD50 (the source's name).
The nature of data set [2]: Lethal dose against NUGC-3 human stomach cancer cell line. Particulars: NUGC-3 cells, read-out: LD50 (the source's name).
The nature of data set [3]: Lethal dose against HL-60 human peripheral blood cancer cell line. The following applies: HL-60 cells, read-out: LD50 (the source's name).
A short description of data set [4]: Lethal dose against human […] HL- 60 cell line. The following applies: HL-60 cells, read-out: LD50 (the source's name).

As for `CC(C)=C1Oc2c(ccc3c2C(O)OC(C)C3)C1=O` (centres undefined), the CC50 in data set [1] came out at 47 µM; in data set [2], 49 µM; in data set [3], 39 µM.
Take `CC(C)=C1Oc2c(ccc3cc(C)ncc23)C1=O`: the CC50 in data set [4] came out at 39 µM.

Source of the values: ChEMBL document CHEMBL1147477, “(4-Carboxamido)phenylalanine is a surrogate for tyrosine in opioid receptor peptide ligands” (Bioorg Med Chem Lett, 2004).
